The values that follow come from patent US20230077362A1 (CORTEVA AGRISCIENCE LLC, priority 2019, published 2023).

Structures are written as SMILES.

The test system of experiment [1] is Beet Armyworm (Spodoptera exigua) ("BAW"), second instar larvae. Description: Bioassay on beet armyworm (BAW), 128-well diet tray assay. The class given is in vivo. The following applies: Spodoptera exigua, read-out: BAW (Biological Results, rating). On the procedure:
(§1) Certain molecules disclosed in this document were tested against BAW and CL using procedures described in the following examples. In the reporting of the results, the “BAW & CL Rating Table” was used (See Table Section).
(§2) Trays were covered with a clear self-adhesive cover and held at 25° C., 14:10 light-dark cycle for five to seven days. Percent mortality was recorded for the larvae in each well; activity in the eight wells was then averaged. The results are indicated in the table entitled “Table ABC: Biological Results” (See Table Section).

Experiment [2] deals with Cabbage Looper (Trichoplusia ni) ("CL"), second instar larvae. The experiment can be described thus: Bioassay on cabbage looper (CL), 128-well diet tray assay. The class given is in vivo. The following applies: Trichoplusia ni, read-out: CL (Biological Results, rating). Here is the method: as §1, §2

On to `Cc1ccc(OCC(F)(F)F)c(N2C(=O)CS/C2=N\C(=O)Nc2ccc(-c3ncn(-c4ccc(OC(F)(F)F)cc4)n3)cc2Cl)c1` [Compound J40, (Z)-1-(2-Chloro-4-(1-(4-(trifluoromethoxy)phenyl)-1H-1,2,4-triazol-3-yl)phenyl)-3-(3-(5-methyl-2-(2,2,2-trifluoroethoxy)phenyl)-4-oxothiazolidin-2-ylidene)urea], for which the pest or weed control at 50 µg/cm2 in experiment [1] and in experiment [2] was 50 to 100% throughout.

In the case of `O=C(/N=C1\SCC(=O)N1c1cc(Cl)ccc1C(F)(F)F)Nc1ccc(-c2ncn(-c3ccc(OC(F)(F)F)cc3)n2)cc1Cl` [Compound J42, (Z)-1-(3-(5-Chloro-2-(trifluoromethyl)phenyl)-4-oxothiazolidin-2-ylidene)-3-(2-chloro-4-(1-(4-(trifluoromethoxy)phenyl)-1H-1,2,4-triazol-3-yl)phenyl)urea], the pest or weed control at 50 µg/cm2 in experiment [1] and in experiment [2] was 50 to 100% throughout.

In the case of `CCCc1ccc(OC)cc1N1C(=O)CS/C1=N\C(=O)Nc1ccc(-c2ncn(-c3ccc(OC(F)(F)F)cc3)n2)cc1F` [Compound J43, (Z)-1-(2-Fluoro-4-(1-(4-(trifluoromethoxy)phenyl)-1H-1,2,4-triazol-3-yl)phenyl)-3-(3-(5-methoxy-2-propylphenyl)-4-oxothiazolidin-2-ylidene)urea], the pest or weed control at 50 µg/cm2 in experiment [1] and in experiment [2] was 50 to 100% in each case.

Turning to `CCCCc1ccc(C)cc1N1C(=O)CS/C1=N\C(=O)Nc1ccc(-c2ncn(-c3ccc(OC(F)(F)F)cc3)n2)cc1F` [Compound J44, (Z)-1-(3-(2-Butyl-5-methylphenyl)-4-oxothiazolidin-2-ylidene)-3-(2-fluoro-4-(1-(4-(trifluoromethoxy)phenyl)-1H-1,2,4-triazol-3-yl)phenyl)urea], the pest or weed control at 50 µg/cm2 in experiment [1] and in experiment [2] was 50 to 100% each time.

As to `CCCCc1ccc(OC)cc1N1C(=O)CS/C1=N\C(=O)Nc1ccc(-c2ncn(-c3ccc(OC(F)(F)F)cc3)n2)cc1F` [Compound J45, (Z)-1-(3-(2-Butyl-5-methoxyphenyl)-4-oxothiazolidin-2-ylidene)-3-(2-fluoro-4-(1-(4-(trifluoromethoxy)phenyl)-1H-1,2,4-triazol-3-yl)phenyl)urea], the pest or weed control at 50 µg/cm2 in experiment [1] and in experiment [2] was 50 to 100% throughout.

Consider `CC(C)c1ccc(Cl)cc1N1C(=O)CS/C1=N\C(=O)Nc1ccc(-c2ncn(-c3ccc(OC(F)(F)F)cc3)n2)cc1F` [Compound J46, (Z)-1-(3-(5-Chloro-2-isopropylphenyl)-4-oxothiazolidin-2-ylidene)-3-(2-fluoro-4-(1-(4-(trifluoromethoxy)phenyl)-1H-1,2,4-triazol-3-yl)phenyl)urea], for which the pest or weed control at 50 µg/cm2 in experiment [1] and in experiment [2] was 50 to 100% throughout.

In the case of `Cc1ccc(CC(C)C)c(N2C(=O)CS/C2=N\C(=O)Nc2ccc(-c3ncn(-c4ccc(OC(F)(F)F)cc4)n3)cc2F)c1` [Compound J47, (Z)-1-(2-Fluoro-4-(1-(4-(trifluoromethoxy)phenyl)-1H-1,2,4-triazol-3-yl)phenyl)-3-(3-(2-isobutyl-5-methylphenyl)-4-oxothiazolidin-2-ylidene)urea], the pest or weed control at 50 µg/cm2 in experiment [1] and in experiment [2] was 50 to 100% in each case.

Consider `CCC(C)c1ccc(OC)cc1N1C(=O)CS/C1=N\C(=O)Nc1ccc(-c2ncn(-c3ccc(OC(F)(F)F)cc3)n2)cc1F` (stereo not shown) [Compound J48, (Z)-1-(3-(2-(sec-Butyl)-5-methoxyphenyl)-4-oxothiazolidin-2-ylidene)-3-(2-fluoro-4-(1-(4-(trifluoromethoxy)phenyl)-1H-1,2,4-triazol-3-yl)phenyl)urea], for which the pest or weed control at 50 µg/cm2 in experiment [1] and in experiment [2] was 50 to 100% throughout.

`COC(C)c1ccc(C)cc1N1C(=O)CS/C1=N\C(=O)Nc1ccc(-c2ncn(-c3ccc(OC(F)(F)F)cc3)n2)cc1F` (stereo not shown) [Compound J49, (Z)-1-(2-Fluoro-4-(1-(4-(trifluoromethoxy)phenyl)-1H-1,2,4-triazol-3-yl)phenyl)-3-(3-(2-(1-methoxyethyl)-5-methylphenyl)-4-oxothiazolidin-2-ylidene)urea]: the pest or weed control at 50 µg/cm2 in experiment [1] and in experiment [2] was 50 to 100% each time.

Turning to `O=C(/N=C1\SCC(=O)N1c1cc(C(F)(F)F)ccc1C(F)(F)F)Nc1ccc(-c2ncn(-c3ccc(OC(F)(F)F)cc3)n2)cc1F` [Compound J50, (Z)-1-(3-(2,5-Bis(trifluoromethyl)phenyl)-4-oxothiazolidin-2-ylidene)-3-(2-fluoro-4-(1-(4-(trifluoromethoxy)phenyl)-1H-1,2,4-triazol-3-yl)phenyl)urea], the pest or weed control at 50 µg/cm2 in experiment [1] and in experiment [2] was 50 to 100% in each case.

Take `CCC(C)Oc1ccc(C)cc1N1C(=O)CS/C1=N\C(=O)Nc1ccc(-c2ncn(-c3ccc(OC(F)(F)F)cc3)n2)cc1F` (stereo not shown) [Compound J51, (Z)-1-(3-(2-(sec-Butoxy)-5-methylphenyl)-4-oxothiazolidin-2-ylidene)-3-(2-fluoro-4-(1-(4-(trifluoromethoxy)phenyl)-1H-1,2,4-triazol-3-yl)phenyl)urea]: the pest or weed control at 50 µg/cm2 in experiment [1] and in experiment [2] was 50 to 100% each time.

`CCCc1ccc(C)cc1N1C(=O)CS/C1=N\C(=O)Nc1ccc(-c2ncn(-c3ccc(OC(F)(F)F)cc3)n2)cc1C` [Compound J53, (Z)-1-(3-(5-Methyl-2-propylphenyl)-4-oxothiazolidin-2-ylidene)-3-(2-methyl-4-(1-(4-(trifluoromethoxy)phenyl)-1H-1,2,4-triazol-3-yl)phenyl)urea]: the pest or weed control at 50 µg/cm2 in experiment [1] and in experiment [2] was 50 to 100% in each case.

As to `COc1ccc(C(C)C)c(N2C(=O)CS/C2=N\C(=O)Nc2ccc(-c3ncn(-c4ccc(OC(F)(F)F)cc4)n3)cc2C)c1` [Compound J54, (Z)-1-(3-(2-Isopropyl-5-methoxyphenyl)-4-oxothiazolidin-2-ylidene)-3-(2-methyl-4-(1-(4-(trifluoromethoxy)phenyl)-1H-1,2,4-triazol-3-yl)phenyl)urea], the pest or weed control at 50 µg/cm2 in experiment [1] and in experiment [2] was 50 to 100% throughout.

Turning to `Cc1ccc(OCC(F)(F)F)c(N2C(=O)CS/C2=N\C(=O)Nc2ccc(-c3ncn(-c4ccc(OC(F)(F)F)cc4)n3)cc2C)c1` [Compound J55, (Z)-1-(3-(5-Methyl-2-(2,2,2-trifluoroethoxy)phenyl)-4-oxothiazolidin-2-ylidene)-3-(2-methyl-4-(1-(4-(trifluoromethoxy)phenyl)-1H-1,2,4-triazol-3-yl)phenyl)urea], the pest or weed control at 50 µg/cm2 in experiment [1] and in experiment [2] was 50 to 100% throughout.

With `Cc1ccc(OCCC(F)(F)F)c(N2C(=O)CS/C2=N\C(=O)Nc2ccc(-c3ncn(-c4ccc(OC(F)(F)F)cc4)n3)cc2C)c1` [Compound J56, (Z)-1-(3-(5-Methyl-2-(3,3,3-trifluoropropoxy)phenyl)-4-oxothiazolidin-2-ylidene)-3-(2-methyl-4-(1-(4-(trifluoromethoxy)phenyl)-1H-1,2,4-triazol-3-yl)phenyl)urea], the pest or weed control at 50 µg/cm2 in experiment [1] and in experiment [2] was 50 to 100% throughout.

In the case of `Cc1ccc(C(C)C)c(N2C(=O)CS/C2=N\C(=O)Nc2ccc(-c3ncn(-c4ccc(OCC(F)(F)F)cc4)n3)cc2F)c1` [Compound J57, (Z)-1-(2-Fluoro-4-(1-(4-(2,2,2-trifluoroethoxy)phenyl)-1H-1,2,4-triazol-3-yl)phenyl)-3-(3-(2-isopropyl-5-methylphenyl)-4-oxothiazolidin-2-ylidene)urea], the pest or weed control at 50 µg/cm2 in experiment [1] and in experiment [2] was 50 to 100% throughout.

On to `COc1ccc(C(C)C)c(N2C(=O)CS/C2=N\C(=O)Nc2ccc(-c3ncn(-c4ccc(OCC(F)(F)F)cc4)n3)cc2F)c1` [Compound J58, (Z)-1-(2-Fluoro-4-(1-(4-(2,2,2-trifluoroethoxy)phenyl)-1H-1,2,4-triazol-3-yl)phenyl)-3-(3-(2-isopropyl-5-methoxyphenyl)-4-oxothiazolidin-2-ylidene)urea], for which the pest or weed control at 50 µg/cm2 in experiment [1] and in experiment [2] was 50 to 100% each time.

For `CCOc1ccc(C)cc1N1C(=O)CS/C1=N\C(=O)Nc1ccc(-c2ncn(-c3ccc(OC(F)(F)F)cc3)n2)cc1F` [Compound J59, (Z)-1-(3-(2-Ethoxy-5-methylphenyl)-4-oxothiazolidin-2-ylidene)-3-(2-fluoro-4-(1-(4-(trifluoromethoxy)phenyl)-1H-1,2,4-triazol-3-yl)phenyl)urea], the pest or weed control at 50 µg/cm2 in experiment [1] and in experiment [2] was 50 to 100% throughout.

Regarding `COC(C)c1ccc(C)cc1N1C(=O)CS/C1=N\C(=O)Nc1ccc(-c2ncn(-c3ccc(OC(F)(F)F)cc3)n2)cc1C` (stereo not shown) [Compound J60, (Z)-1-(3-(2-(1-Methoxyethyl)-5-methylphenyl)-4-oxothiazolidin-2-ylidene)-3-(2-methyl-4-(1-(4-(trifluoromethoxy)phenyl)-1H-1,2,4-triazol-3-yl)phenyl)urea], the pest or weed control at 50 µg/cm2 in experiment [1] and in experiment [2] was 50 to 100% throughout.

`Cc1ccc(C(C)C)c(N2C(=O)CS/C2=N\C(=O)Nc2ccc(-c3ncn(-c4ccc(C(F)(F)F)cc4)n3)cc2F)c1` [Compound J61, (Z)-1-(2-Fluoro-4-(1-(4-(trifluoromethyl)phenyl)-1H-1,2,4-triazol-3-yl)phenyl)-3-(3-(2-isopropyl-5-methylphenyl)-4-oxothiazolidin-2-ylidene)urea]: the pest or weed control at 50 µg/cm2 in experiment [1] and in experiment [2] was 50 to 100% throughout.
